Assay results as given in the supplement of paper PMC13207355.

Experiments:
Settings in all cases: exposure time: 72 h
E13 [1] = patient-derived glioblastoma stem cells of classical subtype; experiment: surviving fraction (nuclei count normalised to DMSO); higher = more cells surviving (less toxic)
E21 [2] = patient-derived glioblastoma stem cells of mesenchymal subtype; experiment: as above
E28 [3] = patient-derived glioblastoma stem cells of classical subtype; experiment: as above
E31 [4] = patient-derived glioblastoma stem cells of proneural subtype; experiment: as above
E34 [5] = patient-derived glioblastoma stem cells of proneural subtype; experiment: as above
E57 [6] = patient-derived glioblastoma stem cells of mesenchymal subtype; experiment: as above
FT3469 [7] = normal neural stem cell line; experiment: as above
E13 [8] = experiment: phenotypic distance (Euclidean, principal components) from DMSO controls (arbitrary units); higher = stronger morphological change
E21 [9] = experiment: as above
E28 [10] = experiment: as above
E31 [11] = experiment: as above
E34 [12] = experiment: as above
E57 [13] = experiment: as above
FT3469 [14] = experiment: as above
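Wherever phenotypic distance (Euclidean, principal components) from DMSO controls is given: cell Painting imaging in 384-well plates, CellProfiler features reduced to at least 20 principal components, Euclidean distance versus same-plate DMSO vehicle wells (0.1% v/v), median over six images per well.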
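Wherever surviving fraction (nuclei count normalised to DMSO) is given: nuclei counted by high-content imaging of Hoechst-stained cells in laminin-coated 384-well plates, relative to 0.1% DMSO vehicle wells, with staurosporine as cell-death control.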

COc1ccc([C@@H]2CC(=O)c3c(O)cc(O[C@@H]4O[C@H](CO[C@@H]5O[C@@H](C)[C@H](O)[C@@H](O)[C@H]5O)[C@@H](O)[C@H](O)[C@H]4O)cc3O2)cc1O [Hesperidin]
Settings	phenotypic distance	surviving fraction
E13 [1], 4.1 nM	–	0.863
E13 [1], 12.3 nM	–	0.95
E13 [1], 37 nM	–	0.946
E13 [1], 111.1 nM	–	0.963
E13 [1], 333.3 nM	–	0.941
E13 [1], 1000 nM	–	1.04
E13 [1], 3000 nM	–	0.96
E13 [8], 4.1 nM	0.619	–
E13 [8], 12.3 nM	0.532	–
E13 [8], 37 nM	0.507	–
E13 [8], 111.1 nM	0.462	–
E13 [8], 333.3 nM	0.682	–
E13 [8], 1000 nM	0.572	–
E13 [8], 3000 nM	0.438	–
E21 [2], 4.1 nM	–	0.916
E21 [2], 12.3 nM	–	0.952
E21 [2], 37 nM	–	0.918
E21 [2], 111.1 nM	–	1.01
E21 [2], 333.3 nM	–	0.971
E21 [2], 1000 nM	–	1.02
E21 [2], 3000 nM	–	0.969
E21 [9], 4.1 nM	0.723	–
E21 [9], 12.3 nM	1.01	–
E21 [9], 37 nM	0.467	–
E21 [9], 111.1 nM	0.825	–
E21 [9], 333.3 nM	0.905	–
E21 [9], 1000 nM	0.753	–
E21 [9], 3000 nM	1.01	–
E28 [3], 4.1 nM	–	1.02
E28 [3], 12.3 nM	–	1.13
E28 [3], 37 nM	–	1.02
E28 [3], 111.1 nM	–	0.97
E28 [3], 333.3 nM	–	1.02
E28 [3], 1000 nM	–	1.13
E28 [3], 3000 nM	–	0.967
E28 [10], 4.1 nM	0.47	–
E28 [10], 12.3 nM	0.575	–
E28 [10], 37 nM	0.783	–
E28 [10], 111.1 nM	0.619	–
E28 [10], 333.3 nM	0.437	–
E28 [10], 1000 nM	0.666	–
E28 [10], 3000 nM	1.36	–
E31 [4], 4.1 nM	–	0.929
E31 [4], 12.3 nM	–	1.11
E31 [4], 37 nM	–	1.1
E31 [4], 111.1 nM	–	0.966
E31 [4], 333.3 nM	–	1.09
E31 [4], 1000 nM	–	1.04
E31 [4], 3000 nM	–	0.936
E31 [11], 4.1 nM	0.45	–
E31 [11], 12.3 nM	0.684	–
E31 [11], 37 nM	0.77	–
E31 [11], 111.1 nM	0.32	–
E31 [11], 333.3 nM	0.513	–
E31 [11], 1000 nM	0.709	–
E31 [11], 3000 nM	0.756	–
E34 [5], 4.1 nM	–	1.02
E34 [5], 12.3 nM	–	0.86
E34 [5], 37 nM	–	0.979
E34 [5], 111.1 nM	–	1.21
E34 [5], 333.3 nM	–	1.01
E34 [5], 1000 nM	–	0.93
E34 [5], 3000 nM	–	1.06
E34 [12], 4.1 nM	0.666	–
E34 [12], 12.3 nM	0.79	–
E34 [12], 37 nM	0.595	–
E34 [12], 111.1 nM	1.02	–
E34 [12], 333.3 nM	0.595	–
E34 [12], 1000 nM	0.635	–
E34 [12], 3000 nM	0.793	–
E57 [6], 4.1 nM	–	1
E57 [6], 12.3 nM	–	1.12
E57 [6], 37 nM	–	0.932
E57 [6], 111.1 nM	–	0.961
E57 [6], 333.3 nM	–	0.943
E57 [6], 1000 nM	–	0.925
E57 [6], 3000 nM	–	0.915
E57 [13], 4.1 nM	0.43	–
E57 [13], 12.3 nM	0.735	–
E57 [13], 37 nM	0.539	–
E57 [13], 111.1 nM	0.532	–
E57 [13], 333.3 nM	0.511	–
E57 [13], 1000 nM	0.762	–
E57 [13], 3000 nM	0.602	–
FT3469 [7], 4.1 nM	–	1.13
FT3469 [7], 12.3 nM	–	1.1
FT3469 [7], 37 nM	–	1.05
FT3469 [7], 111.1 nM	–	1.15
FT3469 [7], 333.3 nM	–	0.937
FT3469 [7], 1000 nM	–	1.01
FT3469 [7], 3000 nM	–	0.981
FT3469 [14], 4.1 nM	0.821	–
FT3469 [14], 12.3 nM	1.41	–
FT3469 [14], 37 nM	0.766	–
FT3469 [14], 111.1 nM	1.05	–
FT3469 [14], 333.3 nM	0.567	–
FT3469 [14], 1000 nM	0.989	–
FT3469 [14], 3000 nM	0.744	–
